Test results from the supplement of paper PMC11061612.

How the values were obtained:
AZD1775 = compound: C=CCn1c(=O)c2cnc(Nc3ccc(N4CCN(C)CC4)cc3)nc2n1-c1cccc(C(C)(C)O)n1 [AZD1775]; conditions: max 3 µM
Procedure, shortened: (§1)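 Cancer cell lines in 1536-well plates (7.5 μl DMEM/F12 or RPMI, 10% FBS) were held 24 hours at 37°C and 5% CO2 and then dosed for 72 hours at a final DMSO of typically 0.2%. Viability was taken from CellTiter-Glo 2.0 luminescence, scaled between blank-well and DMSO-well means. Curves were fitted as two-parameter logistic models with a non-linear mixed effects model, from which the single-agent IC50 was taken.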

Crizotinib = compound: C[C@@H](Oc1cc(-c2cnn(C3CCNCC3)c2)cnc1N)c1c(Cl)ccc(F)c1Cl [Crizotinib]; conditions: max 10 µM
Procedure, shortened: as §1

Palbociclib = compound: CC(=O)c1c(C)c2cnc(Nc3ccc(N4CCNCC4)cn3)nc2n(C2CCCC2)c1=O [Palbociclib]; conditions: max 10 µM
Procedure, shortened: as §1

SG3199 = compound: CC1=CN2[C@@H](C1)C=NC3=CC(=C(C=C3C2=O)OC)OCCCCCOC4=C(C=C5C(=C4)N=C[C@@H]6CC(=CN6C5=O)C)OC [SG3199]; conditions: max 0.001 µM
Procedure, shortened: as §1

SN-38 = compound: CCc1c2c(nc3ccc(O)cc13)-c1cc3c(c(=O)n1C2)COC(=O)[C@]3(O)CC [SN-38]; conditions: max 0.3 µM
Procedure, shortened: as §1

Selumetinib = compound: Cn1cnc2c(F)c(Nc3ccc(Br)cc3Cl)c(C(=O)NOCCO)cc21 [Selumetinib]; conditions: max 10 µM
Procedure, shortened: as §1

Prexasertib = compound: COc1cccc(OCCCN)c1-c1cc(Nc2cnc(C#N)cn2)n[nH]1 [Prexasertib]; conditions: max 1 µM
Procedure, shortened: as §1

Taselisib = compound: Cc1nc(-c2cn3c(n2)-c2ccc(-c4cnn(C(C)(C)C(N)=O)c4)cc2OCC3)n(C(C)C)n1 [Taselisib]; conditions: max 10 µM
Procedure, shortened: as §1

AZD1390 = compound: CC(C)n1c(=O)n(C)c2cnc3cc(F)c(-c4ccc(OCCCN5CCCCC5)nc4)cc3c21 [AZD1390]; conditions: max 0.3 µM
Procedure, shortened: as §1

AZD0156 = compound: CN(C)CCCOc1ccc(-c2ccc3ncc4c(c3c2)n(C2CCOCC2)c(=O)n4C)cn1 [AZD0156]; conditions: max 3 µM
Procedure, shortened: as §1

Savolitinib = compound: C[C@@H](c1ccc2nccn2c1)n1nnc2ncc(-c3cnn(C)c3)nc21 [Savolitinib]; conditions: max 1 µM
Procedure, shortened: as §1

Dasatinib = compound: CC1=C(C(=CC=C1)Cl)NC(=O)C2=CN=C(S2)NC3=CC(=NC(=N3)C)N4CCN(CC4)CCO [Dasatinib]; conditions: max 2 µM
Procedure, shortened: as §1

AZD8186 = compound: C[C@@H](Nc1cc(F)cc(F)c1)c1cc(C(=O)N(C)C)cc2c(=O)cc(N3CCOCC3)oc12 [AZD8186]; conditions: max 3 µM
Procedure, shortened: as §1

AZD5153 = compound: COc1nnc2ccc(N3CCC(c4ccc(OCCN5CCN(C)C(=O)[C@H]5C)cc4)CC3)nn12 [AZD5153]; conditions: max 1 µM
Procedure, shortened: as §1

Lapatinib = compound: CS(=O)(=O)CCNCc1ccc(-c2ccc3ncnc(Nc4ccc(OCc5cccc(F)c5)c(Cl)c4)c3c2)o1 [Lapatinib]; conditions: max 10 µM
Procedure, shortened: as §1

Alisertib = compound: COc1cc(Nc2ncc3c(n2)-c2ccc(Cl)cc2C(c2c(F)cccc2OC)=NC3)ccc1C(=O)O [Alisertib]; conditions: max 10 µM
Procedure, shortened: as §1

AZD2811 = compound: CCN(CCO)CCCOc1ccc2c(Nc3cc(CC(=O)Nc4cccc(F)c4)[nH]n3)ncnc2c1 [AZD2811]; conditions: max 1 µM
Procedure, shortened: as §1

Capivasertib = compound: C1CN(CCC1(C(=O)N[C@@H](CCO)C2=CC=C(C=C2)Cl)N)C3=NC=NC4=C3C=CN4 [Capivasertib]; conditions: max 10 µM
Procedure, shortened: as §1

Doxorubicin = compound: COc1cccc2c1C(=O)c1c(O)c3c(c(O)c1C2=O)C[C@@](O)(C(=O)CO)C[C@@H]3O[C@H]1C[C@H](N)[C@H](O)[C@H](C)O1 [Doxorubicin]; conditions: max 1 µM
Procedure, shortened: as §1

Venetoclax = compound: CC1(C)CCC(CN2CCN(c3ccc(C(=O)NS(=O)(=O)c4ccc(NCC5CCOCC5)c([N+](=O)[O-])c4)c(Oc4cnc5[nH]ccc5c4)c3)CC2)=C(c2ccc(Cl)cc2)C1 [Venetoclax]; conditions: max 1 µM
Procedure, shortened: as §1

Olaparib = compound: O=C(c1cc(Cc2n[nH]c(=O)c3ccccc23)ccc1F)N1CCN(C(=O)C2CC2)CC1 [Olaparib]; conditions: max 10 µM
Procedure, shortened: as §1

Trametinib = compound: CC(=O)Nc1cccc(-n2c(=O)n(C3CC3)c(=O)c3c(Nc4ccc(I)cc4F)n(C)c(=O)c(C)c32)c1 [Trametinib]; conditions: max 1 µM
Procedure, shortened: as §1

Gefitinib = compound: COc1cc2ncnc(Nc3ccc(F)c(Cl)c3)c2cc1OCCCN1CCOCC1 [Gefitinib]; conditions: max 10 µM
Procedure, shortened: as §1

AZD5991 = compound: Cc1c2c(nn1C)CSCc1cc(n(C)n1)CSc1cc(c3ccccc3c1)OCCCc1c(C(=O)O)n(C)c3c-2c(Cl)ccc13 [AZD5991]; conditions: max 1 µM
Procedure, shortened: as §1

AZD4320 = compound: CN(CC[C@H](CSC1=CC=CC=C1)NC2=C(C=C(C=C2)S(=O)(=O)NC(=O)C3=CC=C(C=C3)N4CCC(CC4)[C@H](C5=CC=CC=C5C6=CC=C(C=C6)Cl)O)S(=O)(=O)C(F)(F)F)CCO [AZD4320]; conditions: max 1 µM
Procedure, shortened: as §1

AZD6738 = compound: C[C@@H]1COCCN1C2=NC(=NC(=C2)C3(CC3)[S@](=N)(=O)C)C4=C5C=CNC5=NC=C4 [AZD6738]; conditions: max 10 µM
Procedure, shortened: as §1

AZD7648 = compound: Cc1cc2ncnn2cc1Nc1ncc2c(n1)n(C1CCOCC1)c(=O)n2C [AZD7648]; conditions: max 10 µM
Procedure, shortened: as §1

MK-2206 = compound: NC1(c2ccc(-c3nc4ccn5c(=O)[nH]nc5c4cc3-c3ccccc3)cc2)CCC1 [MK-2206]; conditions: max 10 µM
Procedure, shortened: as §1

Row | Cell Line | IC50, cell viability 72 h (AZD1775) | IC50, cell viability 72 h (Crizotinib) | IC50, cell viability 72 h (Palbociclib) | IC50, cell viability 72 h (SG3199) | IC50, cell viability 72 h (SN-38) | IC50, cell viability 72 h (Selumetinib) | IC50, cell viability 72 h (Prexasertib) | IC50, cell viability 72 h (Taselisib) | IC50, cell viability 72 h (AZD1390) | IC50, cell viability 72 h (AZD0156) | IC50, cell viability 72 h (Savolitinib) | IC50, cell viability 72 h (Dasatinib) | IC50, cell viability 72 h (AZD8186) | IC50, cell viability 72 h (AZD5153) | IC50, cell viability 72 h (Lapatinib) | IC50, cell viability 72 h (Alisertib) | IC50, cell viability 72 h (AZD2811) | IC50, cell viability 72 h (Capivasertib) | IC50, cell viability 72 h (Doxorubicin) | IC50, cell viability 72 h (Venetoclax) | IC50, cell viability 72 h (Olaparib) | IC50, cell viability 72 h (Trametinib) | IC50, cell viability 72 h (Gefitinib) | IC50, cell viability 72 h (AZD5991) | IC50, cell viability 72 h (AZD4320) | IC50, cell viability 72 h (AZD6738) | IC50, cell viability 72 h (AZD7648) | IC50, cell viability 72 h (MK-2206)
1 | 42-MG-BA (Glioblastoma) | 1050 nM | > 10000 nM | > 10000 nM | > 1 nM | 7.39 nM | > 10000 nM | 25.3 nM | 627 nM | > 300 nM | > 3000 nM | > 1000 nM | 54.6 nM | 2530 nM | 401 nM | > 10000 nM | 8550 nM | > 1000 nM | 2250 nM | 163 nM | > 1000 nM | > 10000 nM | > 1000 nM | > 10000 nM | 299 nM | > 1000 nM | 8570 nM | > 10000 nM | 
2 | ES4 (Ewing's Sarcoma) | > 3000 nM | > 10000 nM | > 10000 nM | > 1 nM | 8.83 nM | > 10000 nM | 24.3 nM | 3240 nM | > 300 nM | > 3000 nM | > 1000 nM | > 2000 nM | > 3000 nM | 246 nM | > 10000 nM | > 10000 nM | > 1000 nM | > 10000 nM | 431 nM | > 1000 nM | > 10000 nM | > 1000 nM | > 10000 nM | > 1000 nM | > 1000 nM | 2030 nM | > 10000 nM | 
3 | KYSE-520 (Esophageal Squamous Cell Carcinoma) | > 3000 nM | > 10000 nM | > 10000 nM | > 1 nM | > 300 nM | > 10000 nM | 116 nM | 1250 nM | > 300 nM | > 3000 nM | > 1000 nM | 233 nM | > 3000 nM | 278 nM | 3080 nM | > 10000 nM | > 1000 nM | > 10000 nM | > 1000 nM | > 1000 nM | > 10000 nM | 181 nM | 3920 nM | > 1000 nM | > 1000 nM | > 10000 nM | > 10000 nM | 
4 | EC-GI-10 (Esophageal Squamous Cell Carcinoma) | 516 nM | > 10000 nM | > 10000 nM | > 1 nM | 17.4 nM | > 10000 nM | 171 nM | 496 nM | > 300 nM | > 3000 nM | > 1000 nM | > 2000 nM | > 3000 nM | > 1000 nM | 770 nM | 9240 nM | > 1000 nM | > 10000 nM | > 1000 nM | > 1000 nM | > 10000 nM | 283 nM | 3700 nM | > 1000 nM | > 1000 nM | 8220 nM | > 10000 nM | 
5 | HCC1806 (Breast Carcinoma) | 271 nM | 9230 nM | > 10000 nM | > 1 nM | 12.1 nM | > 10000 nM | 6.18 nM | 7680 nM | > 300 nM | > 3000 nM | > 1000 nM | 414 nM | > 3000 nM | 301 nM | 6200 nM | > 10000 nM | > 1000 nM | > 10000 nM | 258 nM | > 1000 nM | > 10000 nM | > 1000 nM | > 10000 nM | > 1000 nM | > 1000 nM | 1080 nM | > 10000 nM | > 10000 nM
6 | DEL (T-Cell Non-Hodgkin's Lymphoma) | 178 nM | 120 nM | 3530 nM | > 1 nM | 2.3 nM | > 10000 nM | 5.4 nM | > 10000 nM | > 300 nM | 2810 nM | > 1000 nM | > 2000 nM | > 3000 nM | 27.5 nM | 8540 nM | 20.3 nM | 151 nM | > 10000 nM | 91.3 nM | > 1000 nM | 8260 nM | > 1000 nM | > 10000 nM | 28.7 nM | > 1000 nM | 707 nM | > 10000 nM | 
7 | KP-1N (Pancreatic Carcinoma) | > 3000 nM | > 10000 nM | > 10000 nM | > 1 nM | > 300 nM | > 10000 nM | > 1000 nM | > 10000 nM | > 300 nM | > 3000 nM | > 1000 nM | > 2000 nM | > 3000 nM | > 1000 nM | > 10000 nM | > 10000 nM | > 1000 nM | > 10000 nM | > 1000 nM | > 1000 nM | > 10000 nM | > 1000 nM | > 10000 nM | > 1000 nM | > 1000 nM | > 10000 nM | > 10000 nM | 
8 | SK-ES-1 (Ewing's Sarcoma) | 618 nM | 1410 nM | 2390 nM | > 1 nM | 1.6 nM | > 10000 nM | 28 nM | 676 nM | > 300 nM | > 3000 nM | > 1000 nM | > 2000 nM | > 3000 nM | 296 nM | > 10000 nM | 94.1 nM | 17.9 nM | > 10000 nM | 53.3 nM | > 1000 nM | 2610 nM | > 1000 nM | > 10000 nM | 236 nM | 150 nM | 2890 nM | > 10000 nM | 
